Results on 26 compounds are retold here after patent US20220289679A1, “HETEROCYCLIC COMPOUND” (Takeda Pharmaceutical Company Limited, priority 2019, published 2022).

Structures are written as SMILES.

This assay concerns the target T1, human GCS (glucosylceramide synthase) (Homo sapiens, UniProt Q16739).
T1 construct: made in house; host or cells: Expi293F cells (transient expression; microsome fraction)
T1 sequence (Q16739 1-394): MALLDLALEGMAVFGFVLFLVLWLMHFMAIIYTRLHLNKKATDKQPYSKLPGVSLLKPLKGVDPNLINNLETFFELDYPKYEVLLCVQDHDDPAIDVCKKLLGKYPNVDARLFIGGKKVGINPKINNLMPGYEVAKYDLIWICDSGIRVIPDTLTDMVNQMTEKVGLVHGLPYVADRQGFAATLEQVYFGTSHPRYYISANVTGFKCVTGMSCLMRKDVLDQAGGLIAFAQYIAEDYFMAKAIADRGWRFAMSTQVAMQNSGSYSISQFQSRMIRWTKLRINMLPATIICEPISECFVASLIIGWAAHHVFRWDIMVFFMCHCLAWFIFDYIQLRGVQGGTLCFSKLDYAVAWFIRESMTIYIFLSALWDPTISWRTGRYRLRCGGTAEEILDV
Nature of the assay: Glucosylceramide Synthase (GCS) Assay. In kind it is biochemical. The settings on record: test compound 10 μM; microsome fraction of Expi293F cells expressing human GCS; 1.7 μM UDP-glucose, 3 μM C8 ceramide; room temperature 60 min; C8 glucosylceramide by Rapidfire MS/MS; read-out: GCS enzyme inhibitory rate at 10 μM (%). Put shortly:
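Test compounds were run at a final 10 μM against liposomal C8 ceramide (3 μM) and UDP-glucose at its Km (1.7 μM). Human GCS came as microsomes from transfected Expi293F cells, incubated 60 min at room temperature, pH 7.5. Product measured by RapidFire MS/MS; 0% and 100% inhibition were DMSO and no-enzyme wells.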
Regarding `O=C(Nc1ccc(C(O)(C(F)F)C(F)F)cc1)c1cccn(-c2ccccc2OCC(F)(F)F)c1=O` [Example 77, 2-oxo-N-[4-(1,1,3,3-tetrafluoro-2-hydroxypropan-2-yl)phenyl]-1-[2-(2,2,2-trifluoroethoxy)phenyl]-1,2-dihydropyridine-3-carboxamide], the inhibition at 10 µM turned out to be 100%.

In the case of `CC(O)c1ccc(NC(=O)c2ccnn(-c3ccccc3OCC(F)(F)F)c2=O)nc1` (racemic) [Example 140, rac-N-[5-(1-hydroxyethyl)pyridin-2-yl]-3-oxo-2-[2-(2,2,2-trifluoroethoxy)phenyl]-2,3-dihydropyridazine-4-carboxamide], the inhibition at 10 µM was found to be 87%. In the case of `Cc1cc(C(=O)Nc2c(F)cc(C(C)(C)O)cc2F)c(=O)n(-c2ccccc2OCC(F)F)n1` [Example 150, 2-[2-(2,2-difluoroethoxy)phenyl]-N-[2,6-difluoro-4-(2-hydroxypropan-2-yl)phenyl]-6-methyl-3-oxo-2,3-dihydropyridazine-4-carboxamide], the inhibition at 10 µM is 94%. Consider `COc1cc(F)ccc1-n1cccc(C(=O)Nc2ccc(C3CC3)nc2)c1=O` [Example 7, N-(6-cyclopropylpyridin-3-yl)-1-(4-fluoro-2-methoxyphenyl)-2-oxo-1,2-dihydropyridine-3-carboxamide], for which the inhibition at 10 µM came out at 57%. With `Cc1cc(C(=O)Nc2ccc(C(O)(C(F)F)C(F)F)nc2)c(=O)n(-c2ccccc2OCC(F)F)n1` [Example 109, 2-[2-(2,2-difluoroethoxy)phenyl]-6-methyl-3-oxo-N-[6-(1,1,3,3-tetrafluoro-2-hydroxypropan-2-yl)pyridin-3-yl]-2,3-dihydropyridazine-4-carboxamide], the inhibition at 10 µM stood at 100%.

Turning to `CC(C)(O)c1cc(C(=O)Nc2ccc(C(C)(C)C#N)cc2)c(=O)n(-c2ccccc2OCC(F)(F)F)n1` [Example 201, N-[4-(2-cyanopropan-2-yl)phenyl]-6-(2-hydroxypropan-2-yl)-3-oxo-2-[2-(2,2,2-trifluoroethoxy)phenyl]-2,3-dihydropyridazine-4-carboxamide], the inhibition at 10 µM was found to be 100%. For `O=C(Nc1ccc(C(O)(C(F)F)C(F)F)nc1)c1cccn(-c2cc(F)ccc2OCC(F)(F)F)c1=O` [Example 124, 1-[5-fluoro-2-(2,2,2-trifluoroethoxy)phenyl]-2-oxo-N-[6-(1,1,3,3-tetrafluoro-2-hydroxypropan-2-yl)pyridin-3-yl]-1,2-dihydropyridine-3-carboxamide] the value was 99%; for `O=C(Nc1ccc(C(O)(C(F)F)C(F)F)nc1)c1ccnn(-c2ccc(F)cc2OCC(F)(F)F)c1=O` [Example 117, 2-[4-fluoro-2-(2,2,2-trifluoroethoxy)phenyl]-3-oxo-N-[6-(1,1,3,3-tetrafluoro-2-hydroxypropan-2-yl)pyridin-3-yl]-2,3-dihydropyridazine-4-carboxamide], 100%; for `COCCOc1cc(F)ccc1-n1cccc(C(=O)Nc2ccc(OCC(F)(F)F)nc2)c1=O` [Example 27, 1-[4-fluoro-2-(2-methoxyethoxy)phenyl]-2-oxo-N-[6-(2,2,2-trifluoroethoxy)pyridin-3-yl]-1,2-dihydropyridine-3-carboxamide], 75%. With `O=C(Nc1ccc(C(O)C2CC2)nc1)c1cccn(-c2ccc(F)cc2OCC(F)(F)F)c1=O` (single isomer, unassigned) [Example 115, (R or S)-N-{6-[cyclopropyl(hydroxy)methyl]pyridin-3-yl}-1-[4-fluoro-2-(2,2,2-trifluoroethoxy)phenyl]-2-oxo-1,2-dihydropyridine-3-carboxamide], the inhibition at 10 µM was determined as 86%.

As to `CC(C)(O)COc1cc(F)ccc1-n1cccc(C(=O)Nc2ccc(C(O)(C(F)(F)F)C(F)(F)F)cc2)c1=O` [Example 105, 1-[4-fluoro-2-(2-hydroxy-2-methylpropoxy)phenyl]-N-[4-(1,1,1,3,3,3-hexafluoro-2-hydroxypropan-2-yl)phenyl]-2-oxo-1,2-dihydropyridine-3-carboxamide], the inhibition at 10 µM is 99%. Regarding `O=C(Nc1ccc(C2CCOC2)cc1)c1ccnn(-c2ccccc2OCC(F)F)c1=O` (racemic) [Example 145, rac-2-[2-(2,2-difluoroethoxy)phenyl]-3-oxo-N-[4-(oxolan-3-yl)phenyl]-2,3-dihydropyridazine-4-carboxamide], the inhibition at 10 µM was 99%. On to `COc1ccccc1-n1c(C)ccc(C(=O)Nc2ccc(Oc3ccccc3)cc2)c1=O` [Example 1, 1-(2-methoxyphenyl)-6-methyl-2-oxo-N-(4-phenoxyphenyl)-1,2-dihydropyridine-3-carboxamide], for which the inhibition at 10 µM is 71%.

For `CC(C)(O)c1ccc(NC(=O)c2cccn(-c3ccccc3OCC(F)(F)F)c2=O)cc1F` [Example 82, N-[3-fluoro-4-(2-hydroxypropan-2-yl)phenyl]-2-oxo-1-[2-(2,2,2-trifluoroethoxy)phenyl]-1,2-dihydropyridine-3-carboxamide], the inhibition at 10 µM amounted to 99%. Consider `CCOC(=O)c1cc(C(=O)Nc2ccc(OC(F)F)cc2)c(=O)n(-c2ccccc2OCC(F)(F)F)n1` [Example 198, ethyl 5-{[4-(difluoromethoxy)phenyl]carbamoyl}-6-oxo-1-[2-(2,2,2-trifluoroethoxy)phenyl]-1,6-dihydropyridazine-3-carboxylate], for which the inhibition at 10 µM was 98%. As for `Cc1ccc(C(=O)Nc2ccc(C(C)(C)O)cc2)c(=O)n1-c1ccc(F)cc1OCC(F)(F)F` [Example 100, 1-[4-fluoro-2-(2,2,2-trifluoroethoxy)phenyl]-N-[4-(2-hydroxypropan-2-yl)phenyl]-6-methyl-2-oxo-1,2-dihydropyridine-3-carboxamide], the inhibition at 10 µM came out at 70%. For `CC(C)(O)c1cc(C(=O)Nc2ccc(OC(F)F)cc2)c(=O)n(-c2ccccc2OCC(F)(F)F)n1` [Example 200, N-[4-(difluoromethoxy)phenyl]-6-(2-hydroxypropan-2-yl)-3-oxo-2-[2-(2,2,2-trifluoroethoxy)phenyl]-2,3-dihydropyridazine-4-carboxamide], the inhibition at 10 µM amounted to 99%. As to `CC(=O)c1cc(C(=O)Nc2ccc(OC(F)F)cc2)c(=O)n(-c2ccccc2OCC(F)(F)F)n1` [Example 197, 6-acetyl-N-[4-(difluoromethoxy)phenyl]-3-oxo-2-[2-(2,2,2-trifluoroethoxy)phenyl]-2,3-dihydropyridazine-4-carboxamide], the inhibition at 10 µM turned out to be 99%.

For the compound `CCOC(=O)c1ccc(NC(=O)c2cc(C)nn(-c3ccccc3OCC(F)F)c2=O)cc1` [Example 194, ethyl 4-({2-[2-(2,2-difluoroethoxy)phenyl]-6-methyl-3-oxo-2,3-dihydropyridazine-4-carbonyl}amino)benzoate], the inhibition at 10 µM worked out at 97%.

For the compound `CC(C)(O)COc1ccc(NC(=O)c2cn(C(F)F)nc(-c3ccccc3OCC(F)F)c2=O)cc1` [Example 165, 6-[2-(2,2-difluoroethoxy)phenyl]-2-(difluoromethyl)-N-[4-(2-hydroxy-2-methylpropoxy)phenyl]-5-oxo-2,5-dihydropyridazine-4-carboxamide], the inhibition at 10 µM is 98%. For the compound `Cn1cc(C(=O)Nc2ccc(C(O)(C(F)F)C(F)F)cc2)c(=O)c(-c2ccccc2OCC(F)F)n1` [Example 159, 6-[2-(2,2-difluoroethoxy)phenyl]-2-methyl-5-oxo-N-[4-(1,1,3,3-tetrafluoro-2-hydroxypropan-2-yl)phenyl]-2,5-dihydropyridazine-4-carboxamide], the inhibition at 10 µM was determined as 100%. In the case of `Cc1cc(C(=O)Nc2ccc(C(C)(C)O)cc2)c(=O)n(-c2ccccc2OCC(F)(F)F)n1` [Example 131, N-[4-(2-hydroxypropan-2-yl)phenyl]-6-methyl-3-oxo-2-[2-(2,2,2-trifluoroethoxy)phenyl]-2,3-dihydropyridazine-4-carboxamide], the inhibition at 10 µM stood at 100%.

With `COc1cc(F)ccc1-n1cccc(C(=O)Nc2ccn(-c3ccc(F)cc3)n2)c1=O` [Example 8, 1-(4-fluoro-2-methoxyphenyl)-N-[1-(4-fluorophenyl)-1H-pyrazol-3-yl]-2-oxo-1,2-dihydropyridine-3-carboxamide], the inhibition at 10 µM stood at 66%.

Regarding `O=C(Nc1ccc(C(O)C2CC2)nc1)c1cccn(-c2ccc(F)cc2OCC(F)(F)F)c1=O` (racemic) [Example 75, rac-N-{6-[cyclopropyl(hydroxy)methyl]pyridin-3-yl}-1-[4-fluoro-2-(2,2,2-trifluoroethoxy)phenyl]-2-oxo-1,2-dihydropyridine-3-carboxamide], the inhibition at 10 µM turned out to be 96%.

In the case of `N#CCc1ccc(NC(=O)c2cccn(-c3ccc(F)cc3OCC(F)(F)F)c2=O)cn1` [Example 80, N-[6-(cyanomethyl)pyridin-3-yl]-1-[4-fluoro-2-(2,2,2-trifluoroethoxy)phenyl]-2-oxo-1,2-dihydropyridine-3-carboxamide], the inhibition at 10 µM came to 71%. To `COc1cc(F)ccc1-n1cccc(C(=O)Nc2ccc(OCC(F)(F)F)nc2)c1=O` [Example 5, 1-(4-fluoro-2-methoxyphenyl)-2-oxo-N-[6-(2,2,2-trifluoroethoxy)pyridin-3-yl]-1,2-dihydropyridine-3-carboxamide] belongs 68%.
